# US20260231929A1, “SOLVENT COMPOSITION FOR AGROCHEMICAL FORMULATIONS” (SPECIALTY OPERATIONS FRANCE, priority 2023, published 2026)
# Test: Test 1: Maximal solubility of an active in a solvent system (visual observation)
# Assay type: physicochemical
# Text: The maximal solubility of an active or a combo of actives in a solvent system is characterized by visual observation. At a given concentration, if the mixture is limpid (with the naked eye), the active ingredient(s) is (are) considered to be soluble in the solvent system at this concentration. However, if a sedimentation of the active ingredient(s) appears, it is not soluble anymore in the solvent system and the maximal solubility is reached. The maximal solubility is thus defined as the maximum amount of active ingredient(s) that can be dissolved in the solvent system, equal to the amount at which the mixture remains limpid (with the naked eye). Each active ingredient or combo is added little by little in different solvent systems. The solutions are magnetically stirred until complete dissolution. Then an additional amount of active ingredient is added and this operation is repeated until the last part of active ingredient added could not be dissolved anymore, taking care to stir the solution after each addition of active ingredient.
compound,measurement,setting,value
"CCCCCCCCCC(=O)N(C)C [Rhodiasolv ® ADMA 10, N,N-dimethyldecanamide]",maximal solubility of Oxyfluorfen,oxyfluorfen (solo) dissolved in the solvent system,49.0 g/100 g of solvent
same,maximal solubility of Picoxystrobin,picoxystrobin (solo) dissolved in the solvent system,30.0 g/100 g of solvent
